Here are results for five compounds from US20030106108A1, “Genetic transformation method for zoysiagrass” (priority 2001, published 2003).

In assay [1] the test system is zoysiagrass type 1 calli. Nature of the assay: Growth of type 1 calli on MS media with combinations of 2,4-D and BA. Particulars: for Callus fresh weight, Total / Callus fresh weight, Type 1 / Callus fresh weight, Type 2 / Callus fresh weight, Type 3 / Callus fresh weight, Type 4: BA 0 mg/l, 5 weeks, dark, 28° C., mean of ten calli. The format is cell-based, Zoysia japonica Steud. The method, then: To investigate morphological changes occurring on type 1 calli subculturing, type 1 calli were transferred to a MS medium containing various hormonal combinations of 2,4-D (1, 2, 4, and 8 mg/liter) and BA (0, 0.01, and 0.1 mg/liter) in the dark. After five weeks of subculturing in the dark, four callus types were observed. Each callus type was weighed, and the weight ratios were calculated. Calli of types 2, 3, and 4 were also examined in an identical way as with type 1 callus.
Ten mg of type 1 calli was grown on MS media with various combinations of 2,4-D and BA and 2 g/liter gelrite for 5 weeks in the dark at 28° C. Each value represents a mean calculated from ten calli. Callus morphologies were rated by; 1=whitish-yellow, compact and non-friable, 2=white, compact and friable, 3=yellow, compact and very friable, 4=translucent, soft and watery.

Assay [2] relates to zoysiagrass calli. The format is cell-based, Zoysia japonica Steud. The method, then:
Acetosyringone was prepared by dissolving an appropriate amount of powder in dimethyl sulfoxide at a concentration of 100 mg/ml and stored at 4° C. in the dark. It was added to the sterile medium to an appropriate final concentration whenever required. The calli proliferated on the MSCG4 medium were immersed in the Agrobacterial cell suspension for 1 min. After dehydration on sterile filter paper, the calli were cultivated on a co-cultivation medium (MSAS) with 4 mg/liter 2,4-D at 26±1° C. in the dark for 15 days. After co-cultivation, the calli were thoroughly washed by vortexing in sterile double-distilled water supplemented with a surfactant (0.02% pluronic F68) until the washing solution becomes transparent and finally washed in sterile double-distilled water containing 1000 mg/liter calbenicillin and 0.02% surfactant. After washing, an half of the calli were used for GUS activity assay by the method described by Schenk et al. (1998).
Several factors were tested to optimize transformation efficiency. (1) For comparison of different callus types on invasiveness, types 1, 2 and 3 calli were co-cultivated on 2,4-D-free MSAS media for 6 days; (2) For comparison of co-cultivation periods, calli were co-cultivated for 3, 6, 9, 12, 15, 18, 21, 24 and 27 days; (3) For examination of media components, different amounts of 2,4-D (0, 1, 2, 4, and 8 mg/liter), CaCl2 (0, 11, 110, 220, and 440 mg/liter), and acetosyringone (0, 10, 50, 100, and 200 mg/liter) were added to the MSAS media.

Assay [3] concerns Agrobacterial cell. Nature of the assay: Agrobacterium elimination in shoot induction media. The format is cell-based, Agrobacterium tumefaciens. Particulars: 125 mg/liter calbenicillin-containing media. The method, then: The optimized conditions for the A. tumefaciens infection of zoysiagrass calli included the use of type 3 calli as donor, a co-cultivation period of 9 days, the exclusion of 2,4-D and CaCl2 from the media, and the use of 100 mg/l acetosyringone. After pGPTV-HB co-cultivation, calli were transferred to filter paper-laid MSCG media and cultured for 2-4 weeks in the dark. The calli were then transferred to filter paper-laid MSSI medium for shoot induction. Various concentrations (125, 250, and 500 mg/liter) of calbenicillin were added to the shoot induction medium. Induced shoots were subsequently transferred to the MSRS medium for rooting and selection for 4 weeks. Five mg/liter bialaphos and 10 mg/liter hygromycin were used for selection of bialaphos- and hygromycin-resistant plantlets. The rooting plants on the selection medium were transferred to the MSPG medium without antibiotics and bialaphos and further grown. The fully grown plants were then transferred to a pot containing soil and grown in an environmentally controlled growth chamber set at 30° C., 80% relative humidity and 18-hour photoperiod with 30 μmolm^−2s^−1 irradiance provided by cool white fluorescent tubes. When the roots developed enough, pots were transferred to green house. […]

Consider `O=C(O)COc1ccc(Cl)cc1Cl` [2,4-D, 2,4-dichlorophenoxyacetic acid], for which, in assay [1] (2,4-D 1 mg/l), the “Callus fresh weight, Total” value stood at 81.5 mg; the “Callus fresh weight, Type 1” value is on record as 45.8 mg; the “Callus fresh weight, Type 2” value came out at 22.3 mg; the “Callus fresh weight, Type 3” value turned out to be 0 mg. For the same compound, the “Callus fresh weight, Type 4” value in assay [1] (2,4-D 1 mg/l) came to 13.4 mg. In addition, in assay [1] (2,4-D 2 mg/l), the “Callus fresh weight, Total” value is given as 37.0 mg; the “Callus fresh weight, Type 1” value stood at 18.8 mg; the “Callus fresh weight, Type 2” value is recorded as 2.3 mg; the “Callus fresh weight, Type 3” value was found to be 1.5 mg. For the same compound, the “Callus fresh weight, Type 4” value in assay [1] (2,4-D 2 mg/l) was 14.5 mg. In assay [1] (2,4-D 4 mg/l), the “Callus fresh weight, Total” value stood at 29.6 mg; the “Callus fresh weight, Type 1” value stood at 11.4 mg; the “Callus fresh weight, Type 2” value amounted to 0 mg; the “Callus fresh weight, Type 3” value was found to be 0.9 mg. Moreover, the “Callus fresh weight, Type 4” value in assay [1] (2,4-D 4 mg/l) came to 17.2 mg. For the same compound, in assay [2] (2,4-D 0, 1, 2, 4, 8 mg/liter in co-cultivation medium, 9 days of co-cultivation), the “Number of GUS blue spots per 1 g fresh weight of calli, effect of 2,4-D” value is on record as “decreased as the 2,4-D concentration increased”.
On to `c1ccc(CNc2ncnc3[nH]cnc23)cc1` [BA], for which the “Reduction of incidence rate of non-regenerable type 4 calli” value in assay [1] (addition of 0.01 mg/liter BA in combination with 2,4-D) is reported as 1.8-3.4 times.
Take `[Ca+2].[Cl-].[Cl-]` [CaCl2]: in assay [2] (CaCl2 0, 11, 110, 220, 440 mg/liter in co-cultivation medium), the “Number of GUS blue spots per 1 g fresh weight calli, effect of CaCl2” value is “decreased as the CaCl2 concentration increased”.
For `COc1cc(C(C)=O)cc(OC)c1O` [acetosyringone], the “Increase of the number of blue spots (factor)” value in assay [2] (50 mg/liter acetosyringone in co-cultivation medium vs acetosyringone-free medium) is listed as 9. The Transformation efficiency entry in assay [2] (30˜70 mg/liter acetosyringone during co-cultivation) was “greatly enhanced”. The “Effect on the transformation” value in assay [2] (higher than 100 mg/liter acetosyringone) is “negative effect”.
For `CC1(C)S[C@@H]2[C@H](NC(=O)C(C(=O)O)c3ccccc3)C(=O)N2[C@H]1C(=O)O` (stereo partly shown) [calbenicillin], the “Agrobacterial cell contamination of media” value in assay [3] is listed as “sometimes observed”.
